Assay [1] concerns the target T1, catalytic domain of human Bub1 (amino acids 704-1085) (Homo sapiens, UniProt O43683).
T1 construct: catalytic domain of human Bub1 (amino acids 704-1085); His6 (N); made in house; host or cells: Hi5 insect cells
The assay can be described thus: Bub1 kinase assay (TR-FRET). Type of assay: biochemical. The note with it: 10 μM ATP, 1 μM peptide substrate, median value, read-out: Biological Assay 1: Bub1 kinase assay median IC50. From the text:
Bub1-inhibitory activities of compounds described in the present invention were quantified using a time-resolved fluorescence energy transfer (TR-FRET) kinase assay which measures phosphorylation of the synthetic peptide Biotin-Ahx-VLLPKKSFAEPG (C-terminus in amide form), purchased from e.g. Biosyntan (Berlin, Germany) by the (recombinant) catalytic domain of human Bub1 (amino acids 704-1085), expressed in Hi5 insect cells with an N-terminal His6-tag and purified by affinity—(Ni-NTA) and size exclusion chromatography.
In a typical assay 11 different concentrations of each compound (0.1 nM, 0.33 nM, 1.1 nM, 3.8 nM, 13 nM, 44 nM, 0.15 μM, 0.51 μM, 1.7 μM, 5.9 μM and 20 μM) were tested in duplicate within the same microtiter plate. To this end, 100-fold concentrated compound solutions (in DMSO) were previously prepared by serial dilution (1:3.4) of 2 mM stocks in a clear low volume 384-well source microtiter plate (Greiner Bio-One, Frickenhausen, Germany), from which 50 nL of compounds were transferred into a black low volume test microtiter plate from the same supplier. Subsequently, 2 μL of Bub1 (the final concentration of Bub1 was adjusted depending on the activity of the enzyme lot in order to be within the linear dynamic range of the assay: typically 200 ng/mL were used) in aqueous assay buffer [50 mM Tris/HCl pH 7.5, 10 mM magnesium chloride (MgCl2), 200 mM potassium chloride (KCl), 1.0 mM dithiothreitol (DTT), 0.1 mM sodium orthovanadate, 1% (v/v) glycerol, 0.01% (w/v) bovine serum albumine (BSA), 0.005% (v/v) Trition X-100 (Sigma), 1× Complete EDTA-free protease inhibitor mixture (Roche)] were added to the compounds in the test plate and the mixture was incubated for 15 min at 22° C. to allow pre-equilibration of the putative enzyme-inhibitor complexes before the start of the kinase reaction, which was initiated by the addition of 3 μL 1.67-fold concentrated solution (in assay buffer) of adenosine-triphosphate (ATP, 10 μM final concentration) and peptide substrate (1 μM final concentration). […] Subsequently, the amount of product was evaluated by measurement of the resonance energy transfer from the Eu-chelate-antibody complex recognizing the Phosphoserine residue to the streptavidin-XL665 bound to the biotin moiety of the peptide. To this end, the fluorescence emissions at 620 nm and 665 nm after excitation at 330-350 nm were measured in a TR-FRET plate reader, e.g. a Rubystar or Pherastar (both from BMG Labtechnologies, Offenburg, Germany) or a Viewlux (Perkin-Elmer) and the ratio of the emissions (665 nm/622 nm) was taken as indicator for the amount of phosphorylated substrate. […] IC50 values were calculated by fitting the normalized inhibition data to a 4-parameter logistic equation (Minimum, Maximum, IC50, Hill; Y=Max+(Min−Max)/(1+(X/IC50)Hill)).

Assay [2] concerns HeLa human cervical cancer cell line. Description: Proliferation assay (HeLa cell line, crystal violet). Type of assay: cell-based. The note with it: 96 h, HeLa cells, 4 days incubation, crystal violet staining, median value, read-out: Biological Assay 2: Proliferation assay (HeLa cell line) median IC50. As for the experimental part:
Cultivated tumor cells (cells were ordered from ATCC) were plated at a density of 3000 cells/well in a 96-well multititer plate in 200 μL of growth medium supplemented 10% fetal calf serum. After 24 hours, the cells of one plate (zero-point plate) were stained with crystal violet (see below), while the medium of the other plates was replaced by fresh culture medium (200 μL), to which the test substances were added in various concentrations (0 μM, as well as in the range of 0.001-10 μM; the final concentration of the solvent dimethyl sulfoxide was 0.5%). The cells were incubated for 4 days in the presence of test substances. Cell proliferation was determined by staining the cells with crystal violet: the cells were fixed by adding 20 μL/measuring point of an 11% glutaric aldehyde solution for 15 minutes at room temperature. After three washing cycles of the fixed cells with water, the plates were dried at room temperature. The cells were stained by adding 100 μL/measuring point of a 0.1% crystal violet solution (pH 3.0). […] Absorption was determined by photometry at a wavelength of 595 nm.
The change of cell number, in percent, was calculated by normalization of the measured values to the absorption values of the zero-point plate (=0%) and the absorption of the untreated (0 μm) cells (=100%). The IC50 values were determined by means of a 4 parameter fit.

Some results are limits rather than exact numbers.

T1 sequence (O43683 704-1085): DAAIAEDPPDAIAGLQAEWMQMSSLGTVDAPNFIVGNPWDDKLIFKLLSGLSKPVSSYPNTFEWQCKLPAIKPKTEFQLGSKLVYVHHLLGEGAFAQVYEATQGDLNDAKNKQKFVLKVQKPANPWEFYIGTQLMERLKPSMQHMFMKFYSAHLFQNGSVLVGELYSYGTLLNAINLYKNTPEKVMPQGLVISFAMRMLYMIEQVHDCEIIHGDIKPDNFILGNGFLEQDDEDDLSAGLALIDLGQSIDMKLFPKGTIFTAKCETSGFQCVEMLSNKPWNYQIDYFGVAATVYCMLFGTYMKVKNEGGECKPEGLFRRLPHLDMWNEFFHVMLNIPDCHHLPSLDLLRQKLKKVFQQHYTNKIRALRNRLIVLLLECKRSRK

Regarding `COc1cnc(-c2nn(Cc3c(Cl)cnn3C)c(C3CC3)c2C)nc1Nc1ccncc1` [Example 2-1-1, 2-{1-[(4-chloro-1-methyl-1H-pyrazol-5-yl)methyl]-5-cyclopropyl-4-methyl-1H-pyrazol-3-yl}-5-methoxy-N-(pyridin-4-yl)pyrimidin-4-amine], in assay [1], the IC50 worked out at 9 nM. Turning to `COc1cnc(-c2nn(Cc3c(C)noc3C)c(C3CC3)c2C)nc1Nc1ccncc1C(N)=O` [Example 2-2-1, 4-[(2-{5-cyclopropyl-1-[(3,5-dimethyl-1,2-oxazol-4-yl)methyl]-4-methyl-1H-pyrazol-3-yl}-5-methoxypyrimidin-4-yl)amino]nicotinamide], the values for the IC50 in assay [2] and in assay [1] were more than 10000 nM and 16 nM, respectively.

Turning to `CCOC(=O)c1cnccc1Nc1nc(-c2nn(Cc3nnc(C)o3)c(C3CC3)c2C)ncc1OC` [Example 2-4-2, ethyl 4-[(2-{5-cyclopropyl-4-methyl-1-[(5-methyl-1,3,4-oxadiazol-2-yl)methyl]-1H-pyrazol-3-yl}-5-methoxypyrimidin-4-yl)amino]pyridine-3-carboxylate], the IC50 in assay [1] came out at 2100 nM.

On to `COc1cnc(-c2nn(Cc3nnc(C)o3)c(C3CC3)c2C)nc1Nc1ccncc1C(N)=O` [Example 2-5-1, 4-[(2-{5-cyclopropyl-4-methyl-1-[(5-methyl-1,3,4-oxadiazol-2-yl)methyl]-1H-pyrazol-3-yl}-5-methoxypyrimidin-4-yl)amino]pyridine-3-carboxamide], for which the IC50 in assay [2] was more than 10000 nM; in assay [1], 680 nM.

The values above are taken from US9745285B2, “Heteroaryl substituted pyrazoles” (BAYER PHARMA AKTIENGESELLSCHAFT, priority 2013, dated 2017).
